Tested on: cardiomyopathic hamsters
Assay: Cardiovascular effects in conscious cardiomyopathic hamsters with compensated heart failure
Format: in vivo, hamsters of the BIO TO-2 strain
Details: for left ventricular end diastolic pressure, effect in words / left ventricular systolic pressure, effect in words: summary of the discussion, up to 90 minutes after last treatment
Method: The studies described in this experiment were conducted in male hamsters of the BIO TO-2 strain when they were approximately 260 days of age and weighed on average 115 g. These animals develop a genetic form of cardiomyopathy that progresses uniformly among animals through different stages of heart failure. By 240 - 300 days of age the cardiomyopathic hamsters are characterized (as compared with control hamsters) by low mean arterial pressure, a 40% reduction in cardiac output and a decrease in renal blood flow. They display elevated cardiac filling pressure, depressed ventricular function, increased peripheral vascular resistance and have an 8-10-fold increase in plasma atrial natriuretic peptide concentration.
The experiments were conducted in conscious, unrestrained, cardiomyphathic hamsters three hours after placement of cardivascular catheters using brief anesthesia. The catheters allowed measurement of mean arterial pressure, left ventricular end diastolic pressure, left ventricular systolic pressure and heart rate, and provided a means for the administration of agents intravenously.
In this series of experiments baseline measurements of left ventricular end diastolic pressure, left ventricular systolic pressure and heart rate were determined in groups of conscious cardiomyopathic hamsters. Compounds or vehicle were administered intravenously, and measurements were repeated at 30-minute intervals up to 90 minutes after administration of the last agent. BMS 186295 was administered at 30 µmol/kg, i.v. (0.3 ml) followed by a continuous i.v. infusion at 1 µmol/kg per min (0.01 ml/min). BMS 186295 was prepared in 0.028 M potassium hydroxide and diluted to a final concentration of 0.17 M potassium hydroxide. Potassium hydroxide solution (0.17 M) was administered intravenously to the vehicle group at 0.3 ml followed by a continuous infusion at 0.01 ml/min. SQ 28603 was dissolved in 0.84% sodium bicarbonate and administered at 30 µmol/kg, i.v. This dose of SQ 28603 was previously shown to result in a doubling of plasma atrial natriuretic peptide concentration within 90 minutes in this model. One group of cardiomyopathic hamsters received the combination of BMS 186295 and SQ 28603. In this group BMS 186295 was administered according to the same dosage regimen described above; 30 minutes after the bolus injection of BMS 186295, SQ 28603 was administered at 30 µmol/kg, i.v.
Differences in age, body weight and baseline values among groups were evaluated by analysis of variance. Differences in changes from baseline among groups were evaluated by analysis of covariance with repeated measures and contrasts. The baseline value for each variable was used as the covariate. The level of significance was taken at P < 0.05. All data are expressed as mean ± standard error of the mean.

[1] = 30′, BMS 186295 30 µmol/kg i.v. + 1 µmol/kg per min, SQ 28603 30 µmol/kg i.v.
[2] = 60′, BMS 186295 30 µmol/kg i.v. + 1 µmol/kg per min, SQ 28603 30 µmol/kg i.v.
[3] = 90′, BMS 186295 30 µmol/kg i.v. + 1 µmol/kg per min, SQ 28603 30 µmol/kg i.v.
[4] = 30 minutes after last treatment, BMS 186295 30 µmol/kg i.v. + 1 µmol/kg per min, SQ 28603 30 µmol/kg i.v.
[5] = 60 minutes after last treatment, BMS 186295 30 µmol/kg i.v. + 1 µmol/kg per min, SQ 28603 30 µmol/kg i.v.
[6] = 90 minutes after last treatment, BMS 186295 30 µmol/kg i.v. + 1 µmol/kg per min, SQ 28603 30 µmol/kg i.v.
[7] = table line headed 'BMS 186295 SQ 28603', between Baseline and 30′ (time of treatment)

SMILES	Heart Rate [1] [beats/min]	Left Ventricular End Diastolic Pressure [1] [mm Hg]	Left Ventricular Systolic Pressure [1] [mm Hg]	Heart Rate [2] [beats/min]	Left Ventricular End Diastolic Pressure [2] [mm Hg]	Left Ventricular Systolic Pressure [2] [mm Hg]	Heart Rate [3] [beats/min]	Left Ventricular End Diastolic Pressure [3] [mm Hg]	Left Ventricular Systolic Pressure [3] [mm Hg]	Left Ventricular End Diastolic Pressure, Change From Baseline [4] [mm Hg]	Left Ventricular Systolic Pressure, Change From Baseline [4] [mm Hg]	Left Ventricular End Diastolic Pressure, Change From Baseline [5] [mm Hg]	Left Ventricular Systolic Pressure, Change From Baseline [5] [mm Hg]	Left Ventricular End Diastolic Pressure, Change From Baseline [6] [mm Hg]	Left Ventricular Systolic Pressure, Change From Baseline [6] [mm Hg]	Heart Rate (Baseline, before treatment) [beats/min]	Left Ventricular End Diastolic Pressure (Baseline, before treatment) [mm Hg]	Left Ventricular Systolic Pressure (Baseline, before treatment) [mm Hg]	left ventricular end diastolic pressure, effect in words	left ventricular systolic pressure, effect in words	further results
O=C(O)CCNC(=O)C(CS)Cc1ccccc1 (racemic) [SQ 28603, (±)-N-[2-(mercaptomethyl)-1-oxo-3-phenylpropyl]-β-alanine]	381 ± 9	14 ± 2	109 ± 5	366 ± 9	17 ± 3	105 ± 4	378 ± 8	16 ± 3	105 ± 5	4 ± 1	-8 ± 1	-1 ± 2	-12 ± 3	-2 ± 1	-12 ± 2	378 ± 12	18 ± 3	117 ± 5	smaller decreases	smaller decreases	Heart Rate, Change From Baseline [4]: 3 ± 8 mm Hg; Heart Rate, Change From Baseline [5]: -13 ± 12 mm Hg; Heart Rate, Change From Baseline [6]: -1 ± 9 mm Hg; Heart Rate [7]: 380 ± 7 beats/min; Left Ventricular End Diastolic Pressure [7]: 14 ± 3 mm Hg; Left Ventricular Systolic Pressure [7]: 108 ± 5 mm Hg
CCCCC1=NC2(CCCC2)C(=O)N1Cc1ccc(-c2ccccc2-c2nnn[nH]2)cc1 [BMS 186295, 2-butyl-6,7,8,9-tetrahydro-3-[[2'-(1H-tetrazol-5-yl)[1,1'-biphenyl]-4-yl]-methyl]-1,3-diazaspiro[4.4]nonan-4-one]	363 ± 20	16 ± 2	114 ± 2	367 ± 18	16 ± 2	111 ± 2	369 ± 28	18 ± 3	112 ± 5	-1 ± 1	2 ± 2	-1 ± 1	-1 ± 2	1 ± 2	1 ± 5	338 ± 16	17 ± 2	112 ± 2	no significant effects	no significant effects	Heart Rate [7]: 364 ± 14 beats/min; Left Ventricular End Diastolic Pressure [7]: 18 ± 2 mm Hg; Left Ventricular Systolic Pressure [7]: 111 ± 1 mm Hg
